Experimental data from patent publication US7332476B2, “Pyridyl substituted ketolide antibiotics” (Novartis AG, priority 2003, dated 2008).
Converted amounts (≈) assume the structure as drawn.

Experiments:
Assay in all cases: MIC, broth microdilution (NCCLS)
[1] = system: Haemophilus influenzae Hain_49247; assay type: cell-based; settings: unit assumed; for MIC: Table 5, Strain ID L (Table 4): H. influenzae Hain_49247; for MIC, strain ID H: broth microdilution
[2] = system: Staphylococcus epidermidis Step_14990; assay type: cell-based; settings: in µg/mL (unit assumed); for MIC: Table 5, Strain ID A (Table 4): S. epidermidis Step_14990; for MIC, strain ID C: broth microdilution
In short: (§1)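 Broth microdilution per NCCLS in cation-adjusted Mueller-Hinton broth, with 2-5% lysed horse blood added for S. pneumoniae. Inoculum 3×10^5–7×10^5 CFU/ml, 2-fold drug dilutions, 18-24 h at 35° C; S. pneumoniae under 5-10% CO2, others ambient air. MIC = lowest concentration preventing visible growth.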

[3] = system: Enterococcus faecalis Enfa_29212; assay type: cell-based; settings: for MIC: Table 5, Strain ID C (Table 4): E. faecalis Enfa_29212; for MIC, strain ID E: broth microdilution
In short: as §1

[4] = system: Streptococcus pneumoniae Stpn_Erm S 4297; assay type: cell-based; settings: for MIC: Table 5, Strain ID I (Table 4): S. pneumoniae Stpn_Erm S 4297; for MIC, strain ID Q: broth microdilution, in µg/mL (unit assumed)
In short: as §1

[5] = system: Streptococcus pneumoniae Stpn_Mef S 3427; assay type: cell-based; settings: Table 5, Strain ID K (Table 4): S. pneumoniae Stpn_Mef S 3427
In short: as §1

[6] = system: Staphylococcus epidermidis Step_f50654; assay type: cell-based; settings: in µg/mL (unit assumed); for MIC: Table 5, Strain ID B (Table 4): S. epidermidis Step_f50654 Pen S; for MIC, strain ID D: broth microdilution
In short: as §1

[7] = system: Streptococcus pneumoniae Stpn_297-749; assay type: cell-based; parameters: MIC, strain ID N: unit not given here; settings: for MIC: Table 5, Strain ID F (Table 4): S. pneumoniae Stpn_297-749 Pen R; for MIC, strain ID N: broth microdilution
In short: as §1

[8] = system: S. pneumoniae Stpn_Erm 6849; assay type: cell-based, Streptococcus pneumoniae; settings: for MIC: Table 5, Strain ID H (Table 4): S. pneumoniae Stpn_Erm 6849, unit assumed; for MIC, strain ID P: broth microdilution, in µg/mL (unit assumed)
In short: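 Lowest drug concentration giving no visible growth after 18-24 hours at 35° C. under 5-10% CO2 was taken as MIC. Twofold serial dilutions in CAMHB plus 2-5% lysed horse blood, final inoculum 3×10^5–7×10^5 CFU/ml, per NCCLS microdilution.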

[9] = system: Streptococcus pyogenes Stpy_8668; assay type: cell-based; parameters: MIC, strain ID G: unit not given beside the values; settings: for MIC: Table 5, Strain ID D (Table 4): S. pyogenes Stpy_8668; for MIC, strain ID G: broth microdilution
In short: as §1

[10] = system: Streptococcus pneumoniae Stpn_Mef 5654; assay type: cell-based; settings: Table 5, Strain ID J (Table 4): S. pneumoniae Stpn_Mef 5654; in µg/mL (unit assumed)
In short: as §1

[11] = system: Streptococcus pneumoniae Stpn_280-962; assay type: cell-based; parameters: MIC, strain ID O: unit not given beside the values; settings: for MIC: Table 5, Strain ID G (Table 4): S. pneumoniae Stpn_280-962 Pen S; for MIC, strain ID O: broth microdilution
In short: as §1

[12] = system: Streptococcus pneumoniae Stpn_49619; assay type: cell-based; parameters: MIC, strain ID M: unit not given beside the values; settings: for MIC: Table 5, Strain ID E (Table 4): S. pneumoniae Stpn_49619; for MIC, strain ID M: broth microdilution
In short: as §1

[13] = system: E. coli Esco_25922; assay type: cell-based; settings: Table 5, Strain ID M (Table 4): E. coli Esco_25922; unit assumed
Experimental: Strains. The bacterial isolates listed in Table 4 were cultivated from −70° C. frozen stocks by two consecutive overnight passages (P1, P2) at 35° C. on 5% blood agar (Remel, Lenexa, Kans.). Chocolate agar (Remel) is used for Haemophilus influenzae. H. influenzae and Streptococcus pneumoniae are incubated in 5-10% CO2
Drug Stock Preparation. To determine the amount of solvent to be used to give the desired final concentration, the formula “weight obtained in mg/final concentration in mg/ml” will be used. It will give the amount of solvent in ml needed to be added to give the desired concentration. For example, if 2.5 mg/ml is the desired concentration and the weight of compound is 13.7 mg, then the amount of solvent to be added is […]. Methanol is used as the solvent to dissolve the test compounds. Further dilution of stock is done in sterile, deionized water. Drug stocks are kept frozen at −70° C., protected from light.
Susceptibility Testing. MICs are determined by the broth microdilution method in accordance with the NCCLS guidelines. In brief, organism suspensions are adjusted to a 0.5 McFarland standard to yield a final inoculum between 3×10^5 and 7×10^5 CFU/ml. Drug dilutions and inocula are made in sterile, cation adjusted Mueller-Hinton Broth (CAMHB) (Remel) for all but S. pneumoniae [CAMHB with 2-5% lysed horse blood (Remel)] and H. influenzae [Haemophilus Test Medium (Remel)]. An inoculum volume of 100 μl is added to wells containing 100 μl of broth with 2-fold serial dilutions of drug. All inoculated microdilution trays are incubated in ambient air at 35° C. for 18-24 hours, except for S. pneumoniae, and H. influenzae (both at 5-10% CO2).
Following appropriate incubation, the MIC is determined and the MIC is defined as the lowest concentration of the drug that prevented visible growth.

[14] = system: Staphylococcus aureus Stau_29213; assay type: cell-based; settings: strain ID A; broth microdilution; in µg/mL (unit assumed)
In short: as §1

[15] = system: Haemophilus influenzae Hain_953460299-3; assay type: cell-based; settings: strain ID K; broth microdilution; in µg/mL (unit assumed)
In short: (§2)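 Compounds dissolved in methanol, diluted in water, then 2-fold serially diluted in CAMHB (H. influenzae: Haemophilus Test Medium). Inoculated at 3×10^5–7×10^5 CFU/ml from 0.5 McFarland suspension, incubated 35° C for 18-24 h, and scored for visible growth.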

[16] = system: Haemophilus influenzae Hain_2762; assay type: cell-based; settings: strain ID L; broth microdilution; in µg/mL (unit assumed)
In short: as §2

[17] = system: Staphylococcus aureus Stau_33591; assay type: cell-based; settings: strain ID B; broth microdilution; unit assumed
In short: as §2

[18] = system: Haemophilus influenzae Hain_960820544-3; assay type: cell-based; settings: strain ID J; broth microdilution; in µg/mL (unit assumed)
In short: as §2

[19] = system: Enterococcus faecalis Enfa_bc 11148-2; assay type: cell-based; settings: strain ID F; broth microdilution; in µg/mL (unit assumed)
In short: as §2

[20] = system: Haemophilus influenzae Hain_960730503-3; assay type: cell-based; settings: strain ID I; broth microdilution; in µg/mL (unit assumed)
In short: as §2

Row | Compound | MIC [6] | MIC [7] | MIC [8] [µg/mL] | MIC, strain ID H [1] [µg/mL] | MIC, strain ID C [2] | MIC, strain ID E ([3]; in µg/mL (unit assumed)) | MIC, strain ID Q [4] | MIC, strain ID D [6] | MIC, strain ID A [14] | MIC, strain ID N [7] | MIC, strain ID P [8] | MIC, strain ID G [9] | MIC, strain ID K [15] | MIC, strain ID L [16] | MIC, strain ID B [17] [µg/mL] | MIC, strain ID J [18] | MIC, strain ID F [19] | MIC, strain ID I [20] | MIC, strain ID O [11] | MIC, strain ID M [12] | also measured
1 | CC[C@H]1OC(=O)[C@H](C)C(=O)[C@H](C)[C@@H](OC2O[C@H](C)C[C@H](N(C)C)[C@H]2O)[C@@](C)(OC)C[C@@H](C)C(=O)[C@H](C)[C@H]2NC(=O)O[C@@H]21 (stereo partly shown) [Compound 4266] | 3.13 | =0.05 | > 50 |  |  |  |  |  |  |  |  |  |  |  |  |  |  |  |  |  | MIC [1]: 25 µg/mL (≈ 41.8 µM); MIC [2]: 3.13; MIC ([3]; in µg/mL (unit assumed)): 1.56; MIC ([4]; unit assumed): > 50 µg/mL; MIC ([5]; in µg/mL (unit assumed)): 0.1; MIC ([9]; unit assumed): 0.1 µg/mL (≈ 0.167 µM); MIC [10]: 0.2; MIC [11]: =0.05; MIC ([12]; unit assumed): 0.2 µg/mL (≈ 0.334 µM); MIC [13]: > 50 µg/mL
2 | CC[C@H]1OC(=O)[C@H](C)C(=O)[C@H](C)[C@@H](OC2O[C@H](C)C[C@H](N(C)C)[C@H]2O)[C@@](C)(OC)C[C@@H](C)C(=O)[C@H](C)[C@@H]2[C@@H]1OC(=O)N2CCCCn1cnc(-c2ccccc2)c1 (stereo partly shown) [Compound 4710] | 0.2 | =0.5 | 0.2 (≈ 0.251 µM) |  |  |  |  |  |  |  |  |  |  |  |  |  |  |  |  |  | MIC [1]: 3.13 µg/mL (≈ 3.93 µM); MIC [2]: 0.1; MIC [3]: =0.05; MIC [4]: =0.05; MIC [5]: =0.5; MIC [9]: =0.5; MIC [10]: 0.2; MIC [11]: =0.5; MIC [12]: =0.5; MIC [13]: 50 µg/mL (≈ 62.7 µM)
3 | CC[C@H]1OC(=O)[C@H](C)C(=O)[C@H](C)[C@@H](OC2O[C@H](C)C[C@H](N(C)C)[C@H]2O)[C@@](C)(OC)C[C@@H](C)C(=O)[C@H](C)[C@H]2N(CCCCc3ccnc4ccccc34)C(=O)O[C@]12CC (stereo partly shown) [Compound 7283] | 0.2 | =0.05 | 0.4 (≈ 0.494 µM) |  |  |  |  |  |  |  |  |  |  |  |  |  |  |  |  |  | MIC [5]: =0.05; MIC [9]: =0.05; MIC [10]: 0.4; MIC [11]: =0.05; MIC [12]: =0.05; MIC [13]: 12.5 µg/mL (≈ 15.4 µM)
4 | C=C[C@]12OC(=O)N(CCCCn3cnc(-c4cnc(Cl)c(C)c4)c3)[C@@H]1[C@@H](C)C(=O)[C@H](C)C[C@](C)(OC)[C@H](OC1O[C@H](C)C[C@H](N(C)C)[C@H]1O)[C@@H](C)C(=O)[C@@H](C)C(=O)O[C@@H]2CC (stereo partly shown) [XXXVIII] |  |  |  | 3.13 (≈ 3.59 µM) | 0.1 | 0.1 | 0.2 | 0.4 | 0.1 | =0.05 | 0.2 | =0.05 | 12.5 | 1.56 | > 50 | 12.5 | 3.13 | 6.25 | =0.05 | =0.05 | 
5 | C=C[C@]12OC(=O)N(CCCCn3cnc(-c4ccc(Cl)nc4)c3C)[C@@H]1[C@@H](C)C(=O)[C@H](C)C[C@](C)(OC)[C@H](OC1O[C@H](C)C[C@H](N(C)C)[C@H]1O)[C@@H](C)C(=O)[C@@H](C)C(=O)O[C@@H]2CC (stereo partly shown) [XXXVII] |  |  |  | 6.25 (≈ 7.16 µM) | 0.2 | 0.1 | 0.2 | 0.2 | 0.2 | =0.05 | 0.78 | =0.05 | 6.25 | 1.56 | > 50 | 6.25 | 0.78 | 12.5 | =0.05 | =0.05 | 
6 | C=C[C@]12OC(=O)N(CCCCn3cnc(-c4cccnc4Cl)c3)[C@@H]1[C@@H](C)C(=O)[C@H](C)C[C@](C)(OC)[C@H](OC1O[C@H](C)C[C@H](N(C)C)[C@H]1O)[C@@H](C)C(=O)[C@@H](C)C(=O)O[C@@H]2CC (stereo partly shown) [XXXVI] |  |  |  | 3.13 (≈ 3.65 µM) | 0.1 | 0.1 | 0.1 | 0.2 | 0.2 | =0.05 | 0.78 | =0.05 | 6.25 | 1.56 | > 50 | 6.25 | 1.56 | 6.25 | =0.05 | =0.05 | 
7 | C=C[C@]12OC(=O)N(CCCCn3cnc(-c4cnccc4OC)c3)[C@@H]1[C@@H](C)C(=O)[C@H](C)C[C@](C)(OC)[C@H](OC1O[C@H](C)C[C@H](N(C)C)[C@H]1O)[C@@H](C)C(=O)[C@@H](C)C(=O)O[C@@H]2CC (stereo partly shown) [XXXV] |  |  |  | 6.25 (≈ 7.32 µM) | 0.1 | 0.1 | 0.2 | 0.1 | 0.2 | =0.05 | 0.78 | =0.05 | 6.25 | 1.56 | > 50 | 6.25 | 0.78 | 6.25 | =0.05 | =0.05 | 
